The target in one assay is 16S. As to the kind of experiment: Measurement of 16S Kd by FTICR mass spectrometry. The assay is classed as binding. The method, then: (§1) Was performed according to the published report; […]-Lowery, […].; Mohan, […]. et al. Characterization of Low Affinity Complexes Between RNA and Small Molecules Using Electrospray Ionization Mass Spectrometry. J. Am. Chem. […] Screening is performed by measuring the formation of non-covalent complexes between a single ligand or ligand mixture and the appropriate RNA target, along with suitable control structured RNA target(s) simultaneously using a 9.4 T FT-ICR mass spectrometer as detector. Full experimental details of the assay have been described in related literature ([…]-Lowery, et al. in TrAC, Trends Anal. […] The abundances were integrated from the respective ions for free RNA and the ligand-RNA complex. […] The peak ratios are measured at each concentration, then a plot of complex/free RNA versus concentration of ligand added is fitted to a second (or higher) order binding polynomial to determine the KD.

For the next assay, the target named is 18S. Description: 18S Kd by FTICR mass spectrometry. It counts as binding. The method, then:
as §1

A further assay has as its system E. Coli. As to the kind of experiment: Minimum inhibitory concentration (MIC), E. coli. The assay is classed as cell-based. Particulars: range of concentration, 20-24 hours at 37° C., A595; for MIC: Escherichia coli. The method, then:
(§2) The assays are carried out in 150 μL volume in duplicate in 96-well clear flat-bottom plates. The bacterial suspension from an overnight culture growth in appropriate medium is added to a solution of test compound in 2.5% DMSO in water. Final bacterial inoculum is approximately 10^2-10^3 CFU/well. The percentage growth of the bacteria in test wells relative to that observed for a control wells containing no compound is determined by measuring absorbance at 595 nm (A595) after 20-24 hours at 37° C. The MIC is determined as a range of concentration where complete inhibition of growth is observed at the higher concentration and bacterial cells are viable at the lower concentration. Both ampicillin and tetracycline are used as antibiotic positive controls in each screening assay.

A further assay has as its system S. Aureus. As to the kind of experiment: Minimum inhibitory concentration (MIC), S. aureus. The assay is classed as cell-based. Particulars: range of concentration, 20-24 hours at 37° C., A595; for MIC: Staphylococcus aureus. How it is done: as §2
The subject of assay [1] is E. coli S30 bacterial extract (pBest Luc luciferase transcription/translation). As to the kind of experiment: Coupled bacterial transcription/translation assay (T/T). The assay is classed as biochemical. Particulars: luciferase reporter, 35 minutes at 37° C., read-out: Trans/Trans IC50. The method, then: The DNA template, pBest Luc™ (Promega), is a plasmid containing a reporter gene for firefly luciferase fused to a strong tac promoter and ribosome binding site. Messenger RNA from 1 μg pBestLuc was transcribed and translated in E. coli S30 bacterial extract in the presence or absence of test compound. Compounds were tested in a black 96 well microtiter plate with an assay volume of […]. Each test well contained: 5 μL test compound, 13 μL S30 premix (Promega), 4 μL 10× complete amino acid mix (1 mM each), 5 μL E. coli S30 extract and 8 μL of 0.125 μg/μL pBest Luc™. The transcription/translation reaction was incubated for 35 minutes at 37° C. followed by detection of functional luciferase with the addition of 30 μL LucLite™ (Packard). Light output was quantitated on a Packard TopCount.
On the technique in general: Reporter assays use an easily measured gene product as a stand-in for the process of interest.

Assay [2] relates to Staphylococcus aureus (Smith strain ATCC 13709). As to the kind of experiment: Staphylococcus aureus mouse protection assay. It counts as in vivo. Particulars: Staph conc. 10^6 IP in 10% mucin, treatments at 1 hour and 3 hour post infection. The method, then:
Two of the novel aminoglycoside compounds of the invention were examined for their anitbacterial activity against staphylococcus aureus. The mice were infected IP with 0.5 ml […] staphylococcus aureus in 10% mucin. There were 10 mice in each treated group with treatments at 1 hour and 3 hour post infection. The Ibis compounds (IBIS00561085 R4═R5═CH3 and IBIS00561141 R4═H, R5═(CH2)2C6H5) were used at 75 mg/kg, 37.5 mg/kg, 18.8 mg/kg, 9.4 mg/kg, 4.7 mg/kg, 2.3 mg/kg, 1.17 mg/kg and 0.5 mg/kg. Amakacin, Paromomycin and Neomycin were used as the positive controls at concentration of 2 mg/kg, 1 mg/kg and 0.5 mg/kg.

≈ marks a conversion by molar mass, not a printed value.

In general, Kd refers to the equilibrium constant for the complex coming apart. A lower Kd goes with a tighter complex. With `NCCCNC[C@H]1O[C@H](O[C@H]2[C@H](O[C@@H]3O[C@H](CO)[C@@H](O[C@H]4O[C@@H](CN)[C@@H](O)[C@H](O)[C@H]4N)[C@H]3O)[C@@H](O)[C@H](N)C[C@@H]2N)[C@H](N)[C@@H](O)[C@@H]1O` [IBIS00561096], the Kd at 16S is 1590 nM; on 18S, 1450 nM. Moreover, the “MIC E. Coli.” value in the assay on E. Coli. was in the range of 2.5 to 5.0 µM. Moreover, in the assay on S. Aureus, the “MIC S. Aureus” value is 1.25 to 2.5 µM. The IC50 in assay [1] was 175 nM.
Usually MIC stands for the smallest concentration in the dilution series that meets the test's criterion for growth inhibition. A low value points to greater potency. `NCCCCNC[C@H]1O[C@H](O[C@H]2[C@H](O[C@@H]3O[C@H](CO)[C@@H](O[C@H]4O[C@@H](CN)[C@@H](O)[C@H](O)[C@H]4N)[C@H]3O)[C@@H](O)[C@H](N)C[C@@H]2N)[C@H](N)[C@@H](O)[C@@H]1O` [IBIS00561140]: the equilibrium dissociation constant (Kd) at 16S came to 6260 nM; at 18S, 6020 nM. For the same compound, the MIC in the assay on E. Coli. fell in the range of 2.5 to 5 µM (≈ 1.71 to 3.43 µg/mL); with S. Aureus it was 10 to 20 µM (≈ 6.86 to 13.7 µg/mL). For the same compound, in assay [1], the IC50 was found to be 32 nM.
In the case of `NCC1OC(OC2C(CO)OC(OC3C(O)C(N)CC(N)C3OC3OC(CNCCc4ccccc4)C(O)C(O)C3N)C2O)C(N)C(O)C1O` (stereo not shown) [IBIS00561141], the equilibrium dissociation constant (Kd) at 16S amounted to 496 nM; on 18S it was 2160 nM. For the same compound, the “MIC E. Coli.” value against E. Coli. lay within 1.25 to 2.5 µM. In addition, the “MIC S. Aureus” value in the assay on S. Aureus is 0.3125 to 0.625 µM. Also, the “# Dead mice/Total mice in group” value is listed as 7/10 (10% Mucin) in assay [2] (0.5 mg/kg); 0/10 (10% Mucin) in assay [2] (1 mg/kg); 0/10 (10% Mucin) in assay [2] (2 mg/kg); 0/10 (10% Mucin) in assay [2] (4.5 mg/kg); 0/10 (10% Mucin) in assay [2] (9 mg/kg); 0/10 (10% Mucin) in assay [2] (18 mg/kg). Also, the “# Dead mice/Total mice in group” value in assay [2] (37 mg/kg) and in assay [2] (75 mg/kg) was 0/10 (10% Mucin) in each case. For the same compound, the IC50 in assay [1] was 200 nM.
Take `NC[C@@H]1O[C@H](O[C@H]2[C@@H](O)[C@H](O[C@@H]3[C@@H](O)[C@H](N)C[C@H](N)[C@H]3O[C@H]3O[C@H](CN4CCOCC4)[C@@H](O)[C@H](O)[C@H]3N)O[C@@H]2CO)[C@H](N)[C@@H](O)[C@@H]1O` [IBIS00561142]: the figures for the Kd on 16S and at 18S were 3640 nM and 3000 nM, respectively. For the same compound, the MIC fell in the range of 20 to 40 µM (≈ 13.7 to 27.4 µg/mL) against E. Coli. and 10 to 20 µM (≈ 6.85 to 13.7 µg/mL) in the assay on S. Aureus. Besides, the IC50 in assay [1] is 349 nM.

The values above are taken from patent US20080214845A1, “ANTIBACTERIAL 6'-MODIFIED 4,5-SUBSTITUTED AMINOGLYCOSIDE ANALOGS” (priority 2005, published 2008).
